Laboratory results: the NIST ThermoML archive (doi:10.1016/j.jct.2016.02.027)
Numbers after ± are expanded uncertainties.

Columns and labels:
[1] = xn = mol fraction of the nth substance listed; conditions: 298.15 K, 101.3 kPa, Liquid, Vibrating tube method
[2] = 298.15 K; 101.33 kPa; Liquid; Vibrating tube method

**Q.** Which mass density ([1]; x2 = 0.023) does the source give for `CCCC[N+]1(C)CCCC1.O=S(=O)([N-]S(=O)(=O)C(F)(F)F)C(F)(F)F` + CCCCCCCCCC here?
**A.** 1387.66 ± 4.5 kg/m3

**Q.** For `CCCC[N+]1(C)CCCC1.O=S(=O)([N-]S(=O)(=O)C(F)(F)F)C(F)(F)F` + c1ccccc1, which mass density ([1]; x2 = 0.81) is on record?
**A.** 1117.76 ± 4.3 kg/m3

**Q.** What about the mass density ([1]; x2 = 0.811) of the same compound?
**A.** 1118.57 ± 4.3 kg/m3

**Q.** For `CCCC[N+]1(C)CCCC1.O=S(=O)([N-]S(=O)(=O)C(F)(F)F)C(F)(F)F`, which mass density [2] is on record?
**A.** 1394.68 ± 6 kg/m3

**Q.** Which mass density ([1]; x2 = 0.042) does the source give for `CCCC[N+]1(C)CCCC1.O=S(=O)([N-]S(=O)(=O)C(F)(F)F)C(F)(F)F` + CCCCCCCC here?
**A.** 1384.07 ± 4.5 kg/m3
